Data as given in US20260262643A1, “HERBICIDAL BENZOXAZINES” (FMC CORPORATION, priority 2022, published 2026).

Experiments:
barnyardgrass [1] = assay: Test C preemergence; assay type: in vivo, Echinochloa crusgalli; settings: for Barnyardgrass plant response rating: preemergence, 0 to 100 scale (0 no effect, 100 complete control)
Procedure, shortened: (§1)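 Greenhouse herbicide screen, 10-day duration. Test chemicals in solvent/surfactant blend were sprayed onto soil at sowing (pre) or onto 2–10 cm seedlings at one to two leaves (post); injury scored visually against controls, 0 no effect to 100 complete control.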

blackgrass [2] = assay: Test C preemergence; assay type: in vivo, Alopecurus myosuroides; settings: for Blackgrass plant response rating: preemergence, 0 to 100 scale (0 no effect, 100 complete control)
Procedure, shortened: as §1

corn [3] = assay: Test C preemergence; assay type: in vivo, Zea mays; settings: for Corn plant response rating: preemergence, 0 to 100 scale (0 no effect, 100 complete control)
Procedure, shortened: as §1

green foxtail [4] = assay: Test C preemergence; assay type: in vivo, Setaria viridis; settings: for Foxtail, Green plant response rating: preemergence, 0 to 100 scale (0 no effect, 100 complete control)
Procedure, shortened: as §1

kochia [5] = assay: Test C preemergence; assay type: in vivo, Bassia scoparia; settings: for Kochia plant response rating: preemergence, 0 to 100 scale (0 no effect, 100 complete control)
Procedure, shortened: as §1

oat, wild [6] = assay: Test C preemergence; assay type: in vivo, Avena fatua; settings: for Oat, Wild plant response rating: preemergence, 0 to 100 scale (0 no effect, 100 complete control)
Procedure, shortened: as §1

pigweed, palmer [7] = assay: Test C preemergence; assay type: in vivo, Amaranthus palmeri; settings: for Pigweed, Palmer plant response rating: preemergence, 0 to 100 scale (0 no effect, 100 complete control)
Procedure, shortened: as §1

ragweed [8] = assay: Test C preemergence; assay type: in vivo, Ambrosia artemisiifolia; settings: for Ragweed plant response rating: preemergence, 0 to 100 scale (0 no effect, 100 complete control)
Procedure, shortened: as §1

ryegrass, Italian [9] = assay: Test C preemergence; assay type: in vivo, Lolium multiflorum; settings: for Ryegrass, Italian plant response rating: preemergence, 0 to 100 scale (0 no effect, 100 complete control)
Procedure, shortened: as §1

soybean [10] = assay: Test C preemergence; assay type: in vivo, Glycine max; settings: for Soybean plant response rating: preemergence, 0 to 100 scale (0 no effect, 100 complete control)
Procedure, shortened: as §1

wheat [11] = assay: Test C preemergence; assay type: in vivo, Triticum aestivum; settings: for Wheat plant response rating: preemergence, 0 to 100 scale (0 no effect, 100 complete control)
Procedure, shortened: as §1

barnyardgrass [12] = assay: Test C postemergence; assay type: in vivo, Echinochloa crusgalli; settings: 10 days, 0 to 100 scale (0 no effect, 100 complete control)
Procedure, shortened: as §1

blackgrass [13] = assay: Test C postemergence; assay type: in vivo, Alopecurus myosuroides; settings: 10 days, 0 to 100 scale (0 no effect, 100 complete control)
Procedure, shortened: as §1

corn [14] = assay: Test C postemergence; assay type: in vivo, Zea mays; settings: 10 days, 0 to 100 scale (0 no effect, 100 complete control)
Procedure, shortened: as §1

green foxtail [15] = assay: Test C postemergence; assay type: in vivo, Setaria viridis; settings: 10 days, 0 to 100 scale (0 no effect, 100 complete control)
Procedure, shortened: as §1

kochia [16] = assay: Test C postemergence; assay type: in vivo, Bassia scoparia; settings: 10 days, 0 to 100 scale (0 no effect, 100 complete control)
Procedure, shortened: as §1

oat, wild [17] = assay: Test C postemergence; assay type: in vivo, Avena fatua; settings: 10 days, 0 to 100 scale (0 no effect, 100 complete control)
Procedure, shortened: as §1

pigweed, palmer [18] = assay: Test C postemergence; assay type: in vivo, Amaranthus palmeri; settings: 10 days, 0 to 100 scale (0 no effect, 100 complete control)
Procedure, shortened: as §1

ragweed [19] = assay: Test C postemergence; assay type: in vivo, Ambrosia artemisiifolia; settings: 0 to 100 scale (0 no effect, 100 complete control), 10 days
Procedure, shortened: as §1

ryegrass, Italian [20] = assay: Test C postemergence; assay type: in vivo, Lolium multiflorum; settings: 0 to 100 scale (0 no effect, 100 complete control), 10 days
Procedure, shortened: as §1

soybean [21] = assay: Test C postemergence; assay type: in vivo, Glycine max; settings: 0 to 100 scale (0 no effect, 100 complete control), 10 days
Procedure, shortened: as §1

wheat [22] = assay: Test C postemergence; assay type: in vivo, Triticum aestivum; settings: 0 to 100 scale (0 no effect, 100 complete control), 10 days
Procedure, shortened: as §1

galium = assay: Test C postemergence; assay type: in vivo, Galium aparine; settings: 10 days, 0 to 100 scale (0 no effect, 100 complete control)
Procedure, shortened: as §1

horseweed = assay: Test C postemergence; assay type: in vivo, Erigeron canadensis; settings: 10 days, 0 to 100 scale (0 no effect, 100 complete control)
Procedure, shortened: as §1

barnyardgrass [23] = assay: Test D flooded paddy test; assay type: in vivo, Echinochloa crus-galli; settings: 250 g ai/ha, applied to paddy water, visual rating after 13 to 14 days, scale 0 to 100 (0 no effect, 100 complete control)
Procedure, shortened: (§2)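 At the 2-leaf stage, floodwater 3 cm deep received the test compound; that depth persisted throughout. Plants scored visually 13 to 14 days on, 0 (no effect) to 100 (complete control), dash indicating no result.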

ducksalad = assay: Test D flooded paddy test; assay type: in vivo, Heteranthera limosa; settings: 250 g ai/ha, applied to paddy water, visual rating after 13 to 14 days, scale 0 to 100 (0 no effect, 100 complete control)
Procedure, shortened: as §2

rice = assay: Test D flooded paddy test; assay type: in vivo, Oryza sativa; settings: 250 g ai/ha, applied to paddy water, visual rating after 13 to 14 days, scale 0 to 100 (0 no effect, 100 complete control)
Procedure, shortened: as §2

sedge, umbrella = assay: Test D flooded paddy test; assay type: in vivo, Cyperus difformis; settings: 250 g ai/ha, applied to paddy water, visual rating after 13 to 14 days, scale 0 to 100 (0 no effect, 100 complete control)
Procedure, shortened: as §2

[24] = Preemergence, 125 g ai/ha, 0 to 100 scale, 0 no effect, 100 complete control

CCOC[C@H]1CN(C(=O)c2cc(-n3cnc(CC)n3)ccc2C)c2cccc(Cl)c2O1 [Compound 412]
Barnyardgrass plant response rating (barnyardgrass [1]; 500 g ai/ha): 80 | Plant response rating, Barnyardgrass (barnyardgrass [1]; [24]): 60 | Blackgrass plant response rating (blackgrass [2]; 500 g ai/ha): 90 | Plant response rating, Blackgrass (blackgrass [2]; [24]): 50 | Corn plant response rating (corn [3]; 500 g ai/ha): 30 | Plant response rating, Corn (corn [3]; [24]): 0 | Foxtail, Green plant response rating (green foxtail [4]; 500 g ai/ha): 100 | Plant response rating, Foxtail, Green (green foxtail [4]; [24]): 100 | Kochia plant response rating (kochia [5]; 500 g ai/ha): 80 | Plant response rating, Kochia (kochia [5]; [24]): 30 | Oat, Wild plant response rating (oat, wild [6]; 500 g ai/ha): 0 | Plant response rating, Oat, Wild (oat, wild [6]; [24]): 0 | Pigweed, Palmer plant response rating (pigweed, palmer [7]; 500 g ai/ha): 100 | Plant response rating, Pigweed, Palmer (pigweed, palmer [7]; [24]): 100 | Ragweed plant response rating (ragweed [8]; 500 g ai/ha): 100 | Plant response rating, Ragweed (ragweed [8]; [24]): 50 | Ryegrass, Italian plant response rating (ryegrass, Italian [9]; 500 g ai/ha): 90 | Plant response rating, Ryegrass, Italian (ryegrass, Italian [9]; [24]): 80 | Soybean plant response rating (soybean [10]; 500 g ai/ha): 90 | Plant response rating, Soybean (soybean [10]; [24]): 60 | Wheat plant response rating (wheat [11]; 500 g ai/ha): 30 | Plant response rating, Wheat (wheat [11]; [24]): 30 | Plant response rating, Barnyardgrass (barnyardgrass [12]; 500 g ai/ha, postemergence): 80 | Plant response rating, Barnyardgrass (barnyardgrass [12]; Postemergence, 125 g ai/ha): 40 | Plant response rating, Blackgrass (blackgrass [13]; 500 g ai/ha, postemergence): 90 | Plant response rating, Blackgrass (blackgrass [13]; Postemergence, 125 g ai/ha): 60 | Plant response rating, Corn (corn [14]; 500 g ai/ha, postemergence): 20 | Plant response rating, Corn (corn [14]; Postemergence, 125 g ai/ha): 20 | Plant response rating, Foxtail, Green (green foxtail [15]; 500 g ai/ha, postemergence): 90 | Plant response rating, Foxtail, Green (green foxtail [15]; Postemergence, 125 g ai/ha): 80 | Plant response rating, Kochia (kochia [16]; 500 g ai/ha, postemergence): 90 | Plant response rating, Kochia (kochia [16]; Postemergence, 125 g ai/ha): 80 | Plant response rating, Oat, Wild (oat, wild [17]; 500 g ai/ha, postemergence): 50 | Plant response rating, Oat, Wild (oat, wild [17]; Postemergence, 125 g ai/ha): 20 | Plant response rating, Pigweed, Palmer (pigweed, palmer [18]; 500 g ai/ha, postemergence): 90 | Plant response rating, Pigweed, Palmer (pigweed, palmer [18]; Postemergence, 125 g ai/ha): 80 | Plant response rating, Ragweed (ragweed [19]; Postemergence, 125 g ai/ha): 90 | Plant response rating, Ryegrass, Italian (ryegrass, Italian [20]; Postemergence, 125 g ai/ha): 70 | Plant response rating, Soybean (soybean [21]; Postemergence, 125 g ai/ha): 100 | Plant response rating, Wheat (wheat [22]; Postemergence, 125 g ai/ha): 20 | Plant response rating, Galium (galium; 500 g ai/ha, postemergence): 100 | Plant response rating, Galium (galium; Postemergence, 125 g ai/ha): 100 | Plant response rating, Horseweed (horseweed; 500 g ai/ha, postemergence): 30 | Plant response rating, Horseweed (horseweed; Postemergence, 125 g ai/ha): 20 | Plant response rating, Barnyardgrass (Flood) (barnyardgrass [23]): 25 | Plant response rating, Ducksalad (Flood) (ducksalad): 75 | Plant response rating, Rice (Flood) (rice): 10 | Plant response rating, Sedge, Umbrella (Flood) (sedge, umbrella): 90

Cc1cccc2c1OC(C(F)(F)F)CN2C(=O)c1cccc(-n2cnc(C(C)C)n2)c1 (single isomer, unassigned) [Compound 303]
Barnyardgrass plant response rating (barnyardgrass [1]; 500 g ai/ha): 100 | Barnyardgrass plant response rating (barnyardgrass [1]; Test C, 125 g ai/ha): 40 | Blackgrass plant response rating (blackgrass [2]; 500 g ai/ha): 100 | Blackgrass plant response rating (blackgrass [2]; Test C, 125 g ai/ha): 90 | Corn plant response rating (corn [3]; 500 g ai/ha): 50 | Corn plant response rating (corn [3]; Test C, 125 g ai/ha): 0 | Foxtail, Green plant response rating (green foxtail [4]; 500 g ai/ha): 100 | Foxtail, Green plant response rating (green foxtail [4]; Test C, 125 g ai/ha): 100 | Kochia plant response rating (kochia [5]; 500 g ai/ha): 100 | Kochia plant response rating (kochia [5]; Test C, 125 g ai/ha): 70 | Oat, Wild plant response rating (oat, wild [6]; 500 g ai/ha): 90 | Oat, Wild plant response rating (oat, wild [6]; Test C, 125 g ai/ha): 50 | Pigweed, Palmer plant response rating (pigweed, palmer [7]; 500 g ai/ha): 100 | Pigweed, Palmer plant response rating (pigweed, palmer [7]; Test C, 125 g ai/ha): 100 | Ragweed plant response rating (ragweed [8]; 500 g ai/ha): 70 | Ragweed plant response rating (ragweed [8]; Test C, 125 g ai/ha): 0 | Ryegrass, Italian plant response rating (ryegrass, Italian [9]; 500 g ai/ha): 100 | Ryegrass, Italian plant response rating (ryegrass, Italian [9]; Test C, 125 g ai/ha): 90 | Soybean plant response rating (soybean [10]; 500 g ai/ha): 100 | Soybean plant response rating (soybean [10]; Test C, 125 g ai/ha): 30 | Wheat plant response rating (wheat [11]; 500 g ai/ha): 100 | Wheat plant response rating (wheat [11]; Test C, 125 g ai/ha): 70 | Plant response rating, Barnyardgrass (barnyardgrass [12]; 500 g ai/ha, postemergence): 70 | Plant response rating, Barnyardgrass (barnyardgrass [12]; Postemergence, 125 g ai/ha): 20 | Plant response rating, Blackgrass (blackgrass [13]; 500 g ai/ha, postemergence): 100 | Plant response rating, Blackgrass (blackgrass [13]; Postemergence, 125 g ai/ha): 90 | Plant response rating, Corn (corn [14]; 500 g ai/ha, postemergence): 80 | Plant response rating, Corn (corn [14]; Postemergence, 125 g ai/ha): 20 | Plant response rating, Foxtail, Green (green foxtail [15]; 500 g ai/ha, postemergence): 80 | Plant response rating, Foxtail, Green (green foxtail [15]; Postemergence, 125 g ai/ha): 50 | Plant response rating, Kochia (kochia [16]; 500 g ai/ha, postemergence): 80 | Plant response rating, Kochia (kochia [16]; Postemergence, 125 g ai/ha): 70 | Plant response rating, Oat, Wild (oat, wild [17]; 500 g ai/ha, postemergence): 70 | Plant response rating, Oat, Wild (oat, wild [17]; Postemergence, 125 g ai/ha): 50 | Plant response rating, Pigweed, Palmer (pigweed, palmer [18]; 500 g ai/ha, postemergence): 80 | Plant response rating, Pigweed, Palmer (pigweed, palmer [18]; Postemergence, 125 g ai/ha): 40 | Plant response rating, Ragweed (ragweed [19]; 500 g ai/ha, postemergence): 60 | Plant response rating, Ragweed (ragweed [19]; Postemergence, 125 g ai/ha): 50 | Plant response rating, Ryegrass, Italian (ryegrass, Italian [20]; 500 g ai/ha, postemergence): 90 | Plant response rating, Ryegrass, Italian (ryegrass, Italian [20]; Postemergence, 125 g ai/ha): 60 | Plant response rating, Soybean (soybean [21]; 500 g ai/ha, postemergence): 100 | Plant response rating, Soybean (soybean [21]; Postemergence, 125 g ai/ha): 100 | Plant response rating, Wheat (wheat [22]; 500 g ai/ha, postemergence): 50 | Plant response rating, Wheat (wheat [22]; Postemergence, 125 g ai/ha): 30 | Plant response rating, Galium (galium; 500 g ai/ha, postemergence): 100 | Plant response rating, Galium (galium; Postemergence, 125 g ai/ha): 100 | Plant response rating, Horseweed (horseweed; 500 g ai/ha, postemergence): 20 | Plant response rating, Horseweed (horseweed; Postemergence, 125 g ai/ha): 0 | Plant response rating, Barnyardgrass (Flood) (barnyardgrass [23]): 0 | Plant response rating, Ducksalad (Flood) (ducksalad): 80 | Plant response rating, Rice (Flood) (rice): 0 | Plant response rating, Sedge, Umbrella (Flood) (sedge, umbrella): 90
